“Also recorded” adds a separate entry of the source.
Tests used:
[1] = tested on: normal human epidermic keratinocytes; assay: cytotoxic effect: percentage of proteins remaining in keratinocytes after 4 hours of incubation; type: cell-based; conditions: 4 hours incubation
Protocol: For the examination of the toxicity, normal human epidermic keratinocytes were used which were taken from epidermis samples; they consist especially in keratinocytes isolated from the remains of an operation of an abdominal plasty carried out on a person (patient No. 10020).
These keratinocytes were cultivated at 37° C. in a culture medium intended for keratinocytes or MCK, i.e. the one which is marketed under the designation “SFM defined-keratinocyte medium” by the company GIBCO under a humid atmosphere containing 5% of CO2 until confluence of the monolayers.
These six products were incubated during 4 hours in the cultures of the keratinocytes.
Before the incubation, the cells, i.e. the keratinocytes, were rinsed with the tested products in order to eliminate any trace of culture medium.
The saline solutions J, I, H, and K and the physiological serum were used without dilution.
The dexamethasone has been tested at 10 μM in the medium MCK.
The cultures of keratinocytes were incubated in the presence of the six products during 4 hours at 37° C., under a humid atmosphere containing 5% of CO2.
The control cultures, incubated in the medium MCK in the absence of the six products, were carried out in parallel.
All these trials were carried out three times. […]

interleukine IL-8 = assay: release of interleukine IL-8 in cultures of keratinocytes under the influence of MCK medium; type: cell-based, human; conditions: 4 hours incubation; saline solutions and physiological serum without dilution, dexamethasone 10 μM in MCK; control MCK = 100
Text: Then the ability of the hypoosmotic saline solutions used according to the invention to prevent and to limit the release under the influence of certain diseases or certain pro-inflammatory agents of the chemical mediators responsible for the starting of the cutaneous inflammatory phenomena has been examined.
The tested chemical mediator was interleukine IL-8.
The pro-inflammatory agent was consisting of the MCK culture medium which appears to be at the origin of a strong release of interleukine IL-8 in cultures of keratinocytes.
The procedure was similar to that used in the above disclosed tests concerning the estimation of the cytotoxicity of the various tested products.
These products were the same.
The duration of the incubation was also equal to 4 hours.
Under the influence of the MCK medium, the release of interleukine IL-8 was 100 pg/mg of proteins; in that same medium determination has been carried out of the amounts of interleukine IL-8 released in the presence of the six tested products, i.e. on the one hand, the products J, I, H, K as well as physiological serum which were used without dilution and, on the other hand, dexamethasone which has been used at the rate of 10 μM in the MCK medium.

## C[C@@H]1C[C@H]2[C@@H]3CCC4=CC(=O)C=C[C@]4(C)[C@@]3(F)[C@@H](O)C[C@]2(C)[C@@]1(O)C(=O)CO [Dexamethasone, dexamethasone]
[1]
  cytotoxic effect with respect to keratinocytes (in words): not cytotoxic; also recorded: very few cytotoxic
Interleukine IL-8
  amounts of interleukine IL-8 released: 74 pg of IL-8/mg of proteins

Reference: patent US6855325B1, “Use of hypo-osmotic saline solutions and medicine based on said solutions” (Laboratoires GOEMAR S.A., priority 1999, dated 2005)
